For assay [1], the system named is IL-6. The assay is described as follows: IL-6 production by peritoneal macrophages from FVB/N and TgR mice. It is filed as cell-based, mouse. The settings on record: 100 μM ACh.
The subject of assay [2] is U937 cells. The assay is described as follows: Nitric oxide production (Griess) in U937 cells. In kind it is cell-based, human. The settings on record: 24 h, 1 μg/ml LPS, 100 μM ACh. A general note: Nitrite, measured by Griess reagent, commonly stands in for NO production.
In assay [3] the test system is TNFα. The assay is described as follows: TNFα production by peritoneal macrophages from FVB/N and TgR mice. It is filed as cell-based, mouse.
Assay [4] relates to IL-1β, TNFα. Briefly: IL-1β, TNFα production (ELISA) by bone marrow dendritic cells from FVB/N and TgR mice. It is filed as cell-based, mouse. The settings on record: TgR dendritic cells, LPS and ACh. For orientation: An ELISA detects its analyte on a solid surface through an enzyme-linked reagent.
The subject of assay [5] is NFκB. Briefly: NFκB localisation by immunohistochemistry in mouse bone marrow macrophages. It is filed as cell-based. The conditions noted are these: LPS, LPS+ACh.
Assay [6] relates to IL-12. Briefly: IL-12 production by peritoneal macrophages from FVB/N and TgR mice. It is filed as cell-based, mouse.

Molecules are shown by their SMILES.

As for `CC(=O)OCC[N+](C)(C)C.[Cl-]` [ACh, Acetylcholine chloride], the “LPS-induced IL6 increase on co-administration of ACh” value in assay [1] was “prevented this increase”. Also, the “nitric oxide (NO) levels” value in assay [2] is “reduced NO levels, and blocked the LPS-induced increases”. Moreover, in assay [3], the “LPS-induced increase in TNFα on co-administration of ACh” value is “significantly attenuated the LPS-induced increase in TNFα”. In assay [4], the “up-regulation of inflammatory cytokines with ACh” value was “not ACh-preventable”. For the same compound, the “relocation of NFκB from the cytoplasm to the nucleus” value in assay [5] was “significantly attenuated this effect”. For the same compound, the “IL-12 levels on co-administration of ACh with LPS” value in assay [6] (TgR macrophages) is recorded as “elevated in TgR macrophages”; in assay [6] (wild-type macrophages), “significantly lowered”.
